# Measured values published in ChEMBL document CHEMBL1201862, “PubChem BioAssay data set” (2004).
# Calls of active or inactive are those of the source.
# Assays:
# [1] = target: T1, Carboxy-terminal domain RNA polymerase II polypeptide A small phosphatase 1 (Homo sapiens, UniProt Q9GZU7); assay: inhibitors of CTDSP1, concentration-response testing, biochemical assay, absorbance-based, actives from ultra-high-throughput screening (AID 540297); assay type: functional
# T1 sequence (Q9GZU7 whole entry): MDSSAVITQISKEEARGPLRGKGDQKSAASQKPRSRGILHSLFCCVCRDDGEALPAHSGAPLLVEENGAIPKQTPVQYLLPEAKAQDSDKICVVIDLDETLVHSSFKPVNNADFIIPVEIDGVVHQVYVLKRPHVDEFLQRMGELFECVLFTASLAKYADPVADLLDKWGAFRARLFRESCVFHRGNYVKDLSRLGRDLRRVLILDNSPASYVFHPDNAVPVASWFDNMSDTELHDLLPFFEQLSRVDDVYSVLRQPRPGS
# [2] = target: T2, High affinity choline transporter 1 (Homo sapiens, UniProt Q9GZV3); assay: CHT inhibitors, dose response, cell-based, 5-point CRC, membrane potential dye (AID 504840); assay type: functional
# T2 sequence (Q9GZV3 whole entry): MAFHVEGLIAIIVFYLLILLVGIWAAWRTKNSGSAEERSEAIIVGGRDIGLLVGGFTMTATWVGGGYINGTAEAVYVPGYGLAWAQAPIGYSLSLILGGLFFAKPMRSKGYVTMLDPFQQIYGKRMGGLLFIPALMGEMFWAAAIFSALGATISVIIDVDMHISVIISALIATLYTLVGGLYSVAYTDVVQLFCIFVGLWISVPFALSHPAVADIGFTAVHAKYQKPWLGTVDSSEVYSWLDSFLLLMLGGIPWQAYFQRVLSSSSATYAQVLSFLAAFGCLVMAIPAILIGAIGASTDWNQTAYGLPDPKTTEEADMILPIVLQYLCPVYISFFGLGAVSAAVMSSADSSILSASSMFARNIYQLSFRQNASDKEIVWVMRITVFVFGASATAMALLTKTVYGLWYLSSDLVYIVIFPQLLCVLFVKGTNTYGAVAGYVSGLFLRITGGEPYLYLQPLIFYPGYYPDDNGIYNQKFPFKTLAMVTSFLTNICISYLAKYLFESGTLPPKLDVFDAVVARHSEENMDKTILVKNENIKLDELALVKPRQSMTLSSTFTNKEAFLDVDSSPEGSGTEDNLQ
# Vero = assay: cells; assay type: functional; conditions: Chlorocebus sabaeus
# [3] = target: T3, Ubiquitin-conjugating enzyme E2 N (Homo sapiens, UniProt P61088); assay type: functional;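 further: Dose-response confirmation in a TR-FRET assay detecting UBC13-driven polyubiquitin chain formation, inhibition measured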
# T3 sequence (P61088 whole entry): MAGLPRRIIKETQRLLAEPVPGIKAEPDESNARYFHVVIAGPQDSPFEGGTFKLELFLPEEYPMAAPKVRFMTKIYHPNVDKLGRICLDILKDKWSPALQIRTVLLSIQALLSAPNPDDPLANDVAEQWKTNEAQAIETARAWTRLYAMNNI
# CHO = assay: cytotoxicity in TLR9-MyD88 CHO cells, dose response, cytotoxicity control for TLR9-MyD88 binding inhibitor project, cell-based, luminescence (AID 588339); assay type: functional, hamster; conditions: Cricetulus griseus;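 further: CHO cells stably coexpressing TLR9 and MyD88 fusions from primary screen; compound exposure lasted 48 hours before viability readout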
# [4] = target: Induced myeloid leukemia cell differentiation protein Mcl-1 (Homo sapiens, UniProt Q07820); assay type: functional
# Chain of Induced myeloid leukemia cell differentiation protein Mcl-1 (Q07820 whole entry): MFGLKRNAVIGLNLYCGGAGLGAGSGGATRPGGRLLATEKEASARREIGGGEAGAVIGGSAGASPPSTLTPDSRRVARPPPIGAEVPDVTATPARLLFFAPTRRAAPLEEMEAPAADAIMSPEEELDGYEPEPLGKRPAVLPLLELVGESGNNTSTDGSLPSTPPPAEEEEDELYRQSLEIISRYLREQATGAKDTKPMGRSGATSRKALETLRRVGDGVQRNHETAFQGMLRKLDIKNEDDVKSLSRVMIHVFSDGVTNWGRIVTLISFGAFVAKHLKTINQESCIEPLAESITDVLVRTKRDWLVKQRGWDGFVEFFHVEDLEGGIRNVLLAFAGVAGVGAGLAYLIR
# [5] = target: T4, Short transient receptor potential channel 4 (Mus musculus, UniProt Q9QUQ5); assay: mouse TRPC4 channel inhibitors, dose response, cell-based, HEK293 TRPC4/mu-opioid, Fluo-4 calcium (AID 434942); assay type: functional;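 further: potency of inhibitors blocking the TRPC4 calcium response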
# T4 sequence (Q9QUQ5 whole entry): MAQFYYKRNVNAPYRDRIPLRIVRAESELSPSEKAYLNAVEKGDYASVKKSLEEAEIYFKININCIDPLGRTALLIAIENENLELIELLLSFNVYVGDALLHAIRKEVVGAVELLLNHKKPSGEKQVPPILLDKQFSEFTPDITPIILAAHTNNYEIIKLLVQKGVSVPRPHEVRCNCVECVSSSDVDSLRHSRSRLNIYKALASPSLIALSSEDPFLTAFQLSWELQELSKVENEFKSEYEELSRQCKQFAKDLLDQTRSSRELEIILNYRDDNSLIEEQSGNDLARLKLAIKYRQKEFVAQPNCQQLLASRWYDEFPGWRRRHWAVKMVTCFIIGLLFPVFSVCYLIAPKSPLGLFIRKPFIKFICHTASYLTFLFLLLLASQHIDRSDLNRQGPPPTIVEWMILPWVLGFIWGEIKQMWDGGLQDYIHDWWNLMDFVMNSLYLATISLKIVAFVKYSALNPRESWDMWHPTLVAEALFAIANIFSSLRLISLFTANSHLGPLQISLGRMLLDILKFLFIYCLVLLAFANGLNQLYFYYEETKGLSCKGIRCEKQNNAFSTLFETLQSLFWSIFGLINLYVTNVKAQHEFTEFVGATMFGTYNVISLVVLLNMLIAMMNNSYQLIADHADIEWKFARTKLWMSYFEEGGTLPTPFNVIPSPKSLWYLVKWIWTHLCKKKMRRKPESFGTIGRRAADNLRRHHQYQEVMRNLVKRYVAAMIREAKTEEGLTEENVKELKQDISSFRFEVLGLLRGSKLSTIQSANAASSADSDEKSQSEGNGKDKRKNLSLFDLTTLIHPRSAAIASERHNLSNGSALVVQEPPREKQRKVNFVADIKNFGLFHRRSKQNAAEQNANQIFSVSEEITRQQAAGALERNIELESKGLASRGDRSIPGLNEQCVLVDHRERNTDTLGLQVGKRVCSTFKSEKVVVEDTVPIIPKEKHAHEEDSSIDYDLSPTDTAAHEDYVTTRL
# Fatty acid synthase [6] = target: T5, Fatty acid synthase (Homo sapiens, UniProt P49327); assay: FAS thioesterase domain inhibitors, dose response, biochemical, endpoint fluorescence intensity, uHTS hits (AID 624327); assay type: functional;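 further: fluorescence from hydrolysis of an O-methyl fluorescein acyl ester substrate by the enzyme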
# T5 sequence (P49327 whole entry, the tested form may be a part): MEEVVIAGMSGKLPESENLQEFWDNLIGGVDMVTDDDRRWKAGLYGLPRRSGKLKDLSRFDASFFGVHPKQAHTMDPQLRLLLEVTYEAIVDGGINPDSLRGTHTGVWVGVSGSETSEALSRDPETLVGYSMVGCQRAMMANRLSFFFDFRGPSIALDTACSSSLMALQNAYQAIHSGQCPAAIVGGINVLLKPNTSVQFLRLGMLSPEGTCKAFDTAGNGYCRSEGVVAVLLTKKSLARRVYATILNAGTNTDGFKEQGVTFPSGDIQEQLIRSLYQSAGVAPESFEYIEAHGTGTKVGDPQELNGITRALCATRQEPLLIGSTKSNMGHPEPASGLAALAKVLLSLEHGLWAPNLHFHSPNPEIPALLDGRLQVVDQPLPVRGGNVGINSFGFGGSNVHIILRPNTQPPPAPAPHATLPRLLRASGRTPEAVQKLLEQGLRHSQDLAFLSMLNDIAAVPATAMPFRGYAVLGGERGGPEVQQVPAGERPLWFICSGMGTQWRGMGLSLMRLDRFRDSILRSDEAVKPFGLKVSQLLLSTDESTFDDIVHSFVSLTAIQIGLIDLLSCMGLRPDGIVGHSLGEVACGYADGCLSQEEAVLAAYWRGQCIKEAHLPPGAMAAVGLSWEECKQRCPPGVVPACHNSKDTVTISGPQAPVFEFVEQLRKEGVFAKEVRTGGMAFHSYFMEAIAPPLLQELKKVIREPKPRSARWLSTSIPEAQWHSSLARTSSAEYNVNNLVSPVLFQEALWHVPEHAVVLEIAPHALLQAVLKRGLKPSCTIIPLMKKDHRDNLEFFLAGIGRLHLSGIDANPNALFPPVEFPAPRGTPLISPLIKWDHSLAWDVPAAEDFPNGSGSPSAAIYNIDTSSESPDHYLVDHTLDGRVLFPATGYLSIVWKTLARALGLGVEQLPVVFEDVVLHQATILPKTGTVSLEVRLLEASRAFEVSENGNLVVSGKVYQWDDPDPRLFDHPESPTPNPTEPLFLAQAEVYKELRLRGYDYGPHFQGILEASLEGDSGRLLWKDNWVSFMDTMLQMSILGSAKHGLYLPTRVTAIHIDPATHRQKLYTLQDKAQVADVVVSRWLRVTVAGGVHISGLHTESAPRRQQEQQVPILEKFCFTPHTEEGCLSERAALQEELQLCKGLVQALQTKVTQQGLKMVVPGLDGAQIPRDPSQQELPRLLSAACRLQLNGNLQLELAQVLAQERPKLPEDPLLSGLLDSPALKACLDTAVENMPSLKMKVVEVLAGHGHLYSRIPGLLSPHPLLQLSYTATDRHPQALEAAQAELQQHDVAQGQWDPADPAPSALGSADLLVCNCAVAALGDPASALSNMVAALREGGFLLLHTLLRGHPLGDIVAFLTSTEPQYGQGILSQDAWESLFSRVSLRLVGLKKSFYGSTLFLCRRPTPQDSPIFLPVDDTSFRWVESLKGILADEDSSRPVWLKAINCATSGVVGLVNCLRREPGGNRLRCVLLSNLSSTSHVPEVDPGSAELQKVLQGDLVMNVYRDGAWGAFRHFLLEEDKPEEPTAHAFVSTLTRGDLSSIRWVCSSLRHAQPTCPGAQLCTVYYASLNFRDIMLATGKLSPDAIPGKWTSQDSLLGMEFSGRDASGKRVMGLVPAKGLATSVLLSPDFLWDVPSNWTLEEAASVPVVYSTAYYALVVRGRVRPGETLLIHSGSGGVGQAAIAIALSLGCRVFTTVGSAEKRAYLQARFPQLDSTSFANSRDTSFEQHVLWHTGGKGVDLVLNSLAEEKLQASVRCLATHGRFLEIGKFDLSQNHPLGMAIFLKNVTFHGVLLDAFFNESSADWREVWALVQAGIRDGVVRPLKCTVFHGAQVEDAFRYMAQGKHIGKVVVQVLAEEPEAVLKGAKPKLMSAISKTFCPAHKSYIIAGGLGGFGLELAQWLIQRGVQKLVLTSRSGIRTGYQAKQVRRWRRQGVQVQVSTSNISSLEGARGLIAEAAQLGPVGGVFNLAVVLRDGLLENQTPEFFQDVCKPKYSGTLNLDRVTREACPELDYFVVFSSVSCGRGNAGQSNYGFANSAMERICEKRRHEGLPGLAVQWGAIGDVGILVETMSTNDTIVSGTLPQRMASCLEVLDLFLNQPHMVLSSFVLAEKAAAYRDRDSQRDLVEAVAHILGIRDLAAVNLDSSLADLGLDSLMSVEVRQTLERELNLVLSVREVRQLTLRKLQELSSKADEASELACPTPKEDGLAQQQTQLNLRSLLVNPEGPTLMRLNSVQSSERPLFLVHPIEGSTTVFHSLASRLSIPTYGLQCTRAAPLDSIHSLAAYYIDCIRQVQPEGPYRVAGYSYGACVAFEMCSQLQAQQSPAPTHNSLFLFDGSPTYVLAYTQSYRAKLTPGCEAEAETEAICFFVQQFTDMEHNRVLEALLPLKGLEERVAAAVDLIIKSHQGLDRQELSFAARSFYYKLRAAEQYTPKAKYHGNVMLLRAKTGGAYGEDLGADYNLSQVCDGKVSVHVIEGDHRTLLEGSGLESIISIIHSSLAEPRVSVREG
# cells = assay type: functional
# Fatty acid synthase [7] = target: T5, Fatty acid synthase; assay: FAS thioesterase domain inhibitors, dose response, biochemical, kinetic fluorescence intensity (AID 624326); assay type: functional;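 further: rate of fluorescence rise from hydrolysis of a fluorogenic O-methyl fluorescein ester substrate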
# [8] = inhibitors of clade B AD8 Env fusion, dose response, cell-based, cherry-pick (AID 652062); assay type: functional;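 further: luciferase signal from cell-cell fusion driven by HIV-1 clade B AD8 Env; potency is for inhibitors of fusion seen as a drop in luminescence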
# [9] = inhibitors of HIV Env-driven cell fusion, dose response, cherry-pick (AID 652057); assay type: functional, cell-based
# HEK293 = assay: inhibitors of LMP1-driven NF-kB reporter, dose response, cell-based, HEK293, luciferase, cherry-pick (AID 588343); assay type: functional; conditions: Homo sapiens
# Paired box protein Pax-8 = Paired box protein Pax-8 (Homo sapiens, UniProt Q06710); assay: inhibitors of PAX8-driven TPO luciferase reporter, dose response, RMG-I cells, cherry-pick (AID 687027); assay type: functional, cell-based;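 further: luciferase reporter driven by Pax8 target thyroperoxidase promoter measured by SteadyGlo luminescence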
# Chain of Paired box protein Pax-8 (Q06710 whole entry): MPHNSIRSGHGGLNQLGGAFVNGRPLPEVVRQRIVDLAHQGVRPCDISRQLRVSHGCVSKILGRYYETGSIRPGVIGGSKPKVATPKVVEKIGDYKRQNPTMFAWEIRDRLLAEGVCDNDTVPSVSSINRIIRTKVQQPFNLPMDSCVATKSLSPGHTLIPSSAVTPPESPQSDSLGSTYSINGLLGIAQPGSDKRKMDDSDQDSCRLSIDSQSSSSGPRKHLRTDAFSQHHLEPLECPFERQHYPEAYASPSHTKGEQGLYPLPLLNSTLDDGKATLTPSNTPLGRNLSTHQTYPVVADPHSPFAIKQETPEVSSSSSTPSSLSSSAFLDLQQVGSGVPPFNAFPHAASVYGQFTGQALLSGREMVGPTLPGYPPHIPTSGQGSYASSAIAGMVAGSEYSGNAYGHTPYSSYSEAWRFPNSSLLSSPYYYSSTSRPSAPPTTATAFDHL
# P388 = assay: cells; assay type: functional; conditions: Mus musculus
# P388/ADR = assay: cells; assay type: functional; conditions: Mus musculus
# SN12K1 = assay: cells; assay type: functional; conditions: Homo sapiens
# H9c2 = assay: cells; assay type: functional, cell-based; conditions: Rattus norvegicus, H9c2, Myocardium;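 further: confirmatory concentration-response retest of ultra-high-throughput screening hits for modulation of myocardial damage; cell death induced by hydrogen peroxide oxidative stress; compound pretreatment for 60 min then peroxide exposure for 2 h; potency is for protecting the cells against peroxide damage rather than for killing them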
# [10] = growth suppression of PTEN-null colon cells, dose response, cell-based, HCT116 PTEN knockout (AID 1047); assay type: functional;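 further: HCT116 colon tumor cells with PTEN knocked out; cells exposed to compound for 60 hours before readout; potency for loss of cell viability measured by luminescence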
# [11] = growth suppression of beta-catenin-knockout colon cells, dose response, cell-based, HCT116, human colon tumor (AID 1045); assay type: functional;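 further: HCT116 colon tumor cells with beta catenin knocked out; cells exposed to compound for 60 hours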
structure (smiles),measurement,setting,value
COCCN(C(=O)Cn1nnc2ccccc21)C(C(=O)NC1CCCCC1)c1ccc(OC)cc1OC (stereo not drawn),IC50,[1],14.9 µM (active)
O=C(O)c1[nH]c2ccc(Cl)cc2c1CC(=O)N1CCN(c2ccccc2)CC1,IC50,[2],13.2 µM (active)
CC1CCN(CCCNC(=O)c2ccc3c(Cl)c4c(nc3c2)CCCC4)CC1,CC50,Vero,> 25 µM (active)
O=C1c2cccc3cccc(c23)C(=O)N1CCN1CCN(CC(O)COc2ccccc2)CC1 (stereo not drawn),IC50,[3],> 20 µM (inactive)
Cc1ccc(O)c(C(=O)c2cnn(C(=O)COc3ccc(Cl)cc3)c2)c1,IC50,[1],3.89 µM (active)
CCOC(=O)N1CCN(C(=O)c2ccc3c(c2)N(Cc2ccc(F)cc2)CCS3)CC1,IC50,[3],> 20 µM (inactive)
CS(=O)(=O)c1sc2nc(-c3ccccc3)cc(-c3ccccc3)c2c1N,IC50,CHO,> 49.8 µM (inactive)
CCN(CC)S(=O)(=O)c1ccc(C(=O)OCC(=O)NCc2ccco2)cc1,IC50,[1],11.1 µM (active)
Oc1ccc(/C=N/Nc2nc(-c3cccnc3)nc3ccccc23)c(O)c1,IC50,[4],52.8 µM (not active)
O=C(OCC(=O)N1CCc2ccccc2C1)c1cccc([N+](=O)[O-])c1,EC50,[5],2.37 µM (active)
same,IC50,Fatty acid synthase [6],9.14 µM (active)
same,IC50,cells,23.1 µM (active)
same,IC50,Fatty acid synthase [7],10.9 µM (active)
COC(=O)c1cccc(NC(S)=Nc2cccc(Cl)c2Cl)c1,EC50,[5],8.41 µM (active)
COc1cccc(S(=O)(=O)N(C)C[C@H]2Oc3cc(C4=CCCCC4)ccc3S(=O)(=O)N([C@H](C)CO)C[C@H]2C)c1,AC50,[8],2.06 µM (active)
same,AC50,[9],0.409 µM (active)
O=C(COC(=O)c1ccccc1NCCO)Nc1cccc(S(=O)(=O)NC2=NCCCCC2)c1,IC50,[1],10.2 µM (active)
CCCC(C(=O)NC(C)(C)C)N(CC1CCCO1)C(=O)c1snc(C(N)=O)c1N (stereo not drawn),IC50,[3],> 20 µM (inactive)
CC(C)CC1C(=O)N(Cc2cn(CC3CCCCC3)nn2)CCS(=O)(=O)N1Cc1ccc(-c2ccc(F)nc2)cc1 (stereo not drawn),AC50,HEK293,32.8 µM (active)
same,CC50,Vero,19.6 µM (active)
N#Cc1ccc(NC(=O)COC(=O)C2CCC2)cc1,AC50,Paired box protein Pax-8,21.7 µM (active)
O=C(Nc1ccccc1Cl)c1cnccn1,IC50,[4],8.55 µM (not active)
CC(=O)N(c1ccc(Cl)cc1)c1c[nH]c2ccccc12,EC50,[5],18.8 µM (active)
CCNc1nc(NCC)n2c(SCC(=O)Nc3cccc(Cl)c3)nnc2n1,IC50,[1],16.2 µM (active)
CC(c1ccccc1)n1c(-c2cccs2)nc2c(c(=O)c3ccccc3n2C)c1=O (stereo not drawn),CC50,Vero,> 25 µM (active)
COc1ccc(NC(=O)CSc2nc3ccsc3c(=O)n2CCCCCC(=O)O)cc1,IC50,[3],> 20 µM (inactive)
COc1ccc(N(C(=O)c2snc(C(N)=O)c2N)C(C(=O)NC2CCCC2)c2ccc3ncccc3c2)cc1 (stereo not drawn),IC50,[3],> 20 µM (inactive)
CSc1sc(=S)sc1SC,GI50,P388,60.8 µM (inactive)
same,GI50,P388/ADR,> 100 µM (inactive)
same,GI50,SN12K1,> 63.1 µM (inactive)
O=C(C[n+]1cc(Br)cc2ccccc21)c1ccc(Br)cc1,IC50,[2],11.4 µM (active)
Cc1ccc(Sc2ccc(CO)cc2[N+](=O)[O-])cc1,EC50,[5],3.35 µM (active)
COc1cc(NC(=O)c2csc(-c3ccncc3)n2)cc(C(=O)Nc2cccc(C(F)(F)F)c2)c1,IC50,[2],6.44 µM (active)
same,IC50,H9c2,> 79 µM (inactive)
C=C1C(=O)OC2CC(C)C3C4OC4C(O)C3(C)C(O)C12 (stereo not drawn),GI50,P388,8.02 µM (inactive)
same,GI50,P388/ADR,8.85 µM (inactive)
same,GI50,SN12K1,24.8 µM (inactive)
CC1=C(C(=O)OCCOc2ccccc2)C(c2ccsc2)NC(=O)N1C (stereo not drawn),IC50,[2],13.2 µM (active)
Cc1cc(SCc2cc(=O)n3ccsc3n2)nc2ccccc12,IC50,[2],13.2 µM (active)
Cc1cc2[nH]c3ccccc3c2c(C)n1,EC50,[5],1.68 µM (active)
C=C(NC(=O)C(=C)NC(=O)c1csc(C2=NC3c4csc(n4)C4NC(=O)c5csc(n5)C(C(C)(O)C(C)O)NC(=O)C5CSC(=N5)/C(=C/C)NC(=O)C(C(C)O)NC(=O)c5csc(n5)C3(CC2)NC(=O)C(C)NC(=O)C(=C)NC(=O)C(C)NC(=O)C(C(C)CC)NC2C=Cc3c(C(C)O)cc(nc3C2O)C(=O)OC4C)n1)C(N)=O (stereo not drawn),GI50,P388,0.0407 µM (active)
same,GI50,P388/ADR,1.27 µM (inactive)
same,GI50,SN12K1,0.968 µM (active)
COc1ccc(S(=O)(=O)c2cnc(S)nc2O)cc1Cl,IC50,[1],8.64 µM (active)
COc1cccc(C(=O)Nc2ccc3nc(N4CCN(c5ncccn5)CC4)cc(C)c3c2)c1OC,IC50,[4],5.6 µM (active)
same,EC50,[10],5.74 µM (active)
same,EC50,[11],6.95 µM (active)
CN(CCNC(=O)CCCOc1cc(=O)n(C)c2ccccc12)Cc1ccccc1,IC50,[3],> 20 µM (inactive)
